Among the data in ChEMBL document CHEMBL1909046, “DrugMatrix in vitro pharmacology data” are IC50 and Ki values, retold here.

The nature of data set [1]: DRUGMATRIX: Sigma2 radioligand binding (ligand: [3H] Ifenprodil). Format: cell membranes, Rattus norvegicus, Wistar, Brain, Membrane. Particulars: Not Active = under 50% inhibition at 10 µM.
The next data set has as its target Nitric oxide synthase 1 (Rattus norvegicus, UniProt P29476). Format: tissue-based, Cerebellum. Note: in other assays of this panel Not Active means under 50% inhibition at 10 µM.
In the next data set the target is T1, Progesterone receptor (Bos taurus, UniProt Q690N0).
T1 sequence (Q690N0 whole entry): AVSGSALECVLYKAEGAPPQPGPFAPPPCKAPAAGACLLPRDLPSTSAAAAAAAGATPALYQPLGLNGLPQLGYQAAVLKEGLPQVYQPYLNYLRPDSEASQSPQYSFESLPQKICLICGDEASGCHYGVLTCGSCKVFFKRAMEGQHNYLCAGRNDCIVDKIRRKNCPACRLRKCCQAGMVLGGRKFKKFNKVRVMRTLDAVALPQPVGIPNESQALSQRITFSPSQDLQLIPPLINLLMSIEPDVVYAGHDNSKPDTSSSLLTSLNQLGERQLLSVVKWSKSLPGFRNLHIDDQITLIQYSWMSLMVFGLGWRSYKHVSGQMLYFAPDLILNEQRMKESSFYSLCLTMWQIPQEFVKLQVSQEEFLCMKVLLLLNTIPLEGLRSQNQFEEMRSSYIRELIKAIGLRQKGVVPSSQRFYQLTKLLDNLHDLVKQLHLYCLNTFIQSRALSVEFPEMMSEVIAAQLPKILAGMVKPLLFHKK
The experiment in a line: DRUGMATRIX: Progesterone radioligand binding (ligand: [3H] R-5020). The format is tissue-based, Uterus. Particulars: Not Active = under 50% inhibition at 10 µM.

Another data set addresses T2, Interstitial collagenase (Homo sapiens, UniProt P03956).
T2 sequence (P03956 whole entry): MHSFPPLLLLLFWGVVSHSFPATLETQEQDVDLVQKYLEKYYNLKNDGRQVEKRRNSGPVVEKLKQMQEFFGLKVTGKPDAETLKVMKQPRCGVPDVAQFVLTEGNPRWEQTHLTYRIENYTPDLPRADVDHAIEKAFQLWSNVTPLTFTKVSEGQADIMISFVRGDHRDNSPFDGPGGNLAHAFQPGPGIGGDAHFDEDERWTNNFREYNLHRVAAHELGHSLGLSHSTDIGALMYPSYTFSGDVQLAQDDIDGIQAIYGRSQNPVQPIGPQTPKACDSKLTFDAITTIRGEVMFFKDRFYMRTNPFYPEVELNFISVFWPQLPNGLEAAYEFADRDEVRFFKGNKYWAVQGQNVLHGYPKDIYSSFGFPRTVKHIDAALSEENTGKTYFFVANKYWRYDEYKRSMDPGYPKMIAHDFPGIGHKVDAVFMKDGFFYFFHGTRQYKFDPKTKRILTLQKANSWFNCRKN
The experiment in a line: biochemical. Format: tissue-based, Rheumatoid synovial fibroblasts.

The target in the next data set is T3, Cytochrome P450 1A2 (Homo sapiens, UniProt P05177). Note: in other assays of this panel Not Active means under 50% inhibition at 10 µM.
T3 sequence (P05177 whole entry): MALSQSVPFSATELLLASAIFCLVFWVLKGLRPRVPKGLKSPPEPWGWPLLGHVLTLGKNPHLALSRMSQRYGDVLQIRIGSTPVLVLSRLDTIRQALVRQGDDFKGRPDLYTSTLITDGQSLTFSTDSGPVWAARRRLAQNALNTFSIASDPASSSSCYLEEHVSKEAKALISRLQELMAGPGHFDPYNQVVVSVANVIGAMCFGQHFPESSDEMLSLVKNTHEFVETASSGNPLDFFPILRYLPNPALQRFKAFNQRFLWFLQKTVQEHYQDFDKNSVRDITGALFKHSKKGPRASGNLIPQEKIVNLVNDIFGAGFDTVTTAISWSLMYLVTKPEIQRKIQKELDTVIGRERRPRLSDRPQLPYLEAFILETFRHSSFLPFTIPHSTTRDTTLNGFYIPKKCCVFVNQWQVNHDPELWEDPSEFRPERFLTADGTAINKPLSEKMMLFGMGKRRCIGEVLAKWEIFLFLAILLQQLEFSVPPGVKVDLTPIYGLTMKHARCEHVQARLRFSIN
Particulars: bti-tn-5b1-4.

Another data set has as its target Cytochrome P450 2C19 (Homo sapiens, UniProt P33261). Particulars: bti-tn-5b1-4. Note: in other assays of this panel Not Active means under 50% inhibition at 10 µM.
The next data set addresses T4, Glucocorticoid receptor (Homo sapiens, UniProt P04150).
T4 sequence (P04150 whole entry): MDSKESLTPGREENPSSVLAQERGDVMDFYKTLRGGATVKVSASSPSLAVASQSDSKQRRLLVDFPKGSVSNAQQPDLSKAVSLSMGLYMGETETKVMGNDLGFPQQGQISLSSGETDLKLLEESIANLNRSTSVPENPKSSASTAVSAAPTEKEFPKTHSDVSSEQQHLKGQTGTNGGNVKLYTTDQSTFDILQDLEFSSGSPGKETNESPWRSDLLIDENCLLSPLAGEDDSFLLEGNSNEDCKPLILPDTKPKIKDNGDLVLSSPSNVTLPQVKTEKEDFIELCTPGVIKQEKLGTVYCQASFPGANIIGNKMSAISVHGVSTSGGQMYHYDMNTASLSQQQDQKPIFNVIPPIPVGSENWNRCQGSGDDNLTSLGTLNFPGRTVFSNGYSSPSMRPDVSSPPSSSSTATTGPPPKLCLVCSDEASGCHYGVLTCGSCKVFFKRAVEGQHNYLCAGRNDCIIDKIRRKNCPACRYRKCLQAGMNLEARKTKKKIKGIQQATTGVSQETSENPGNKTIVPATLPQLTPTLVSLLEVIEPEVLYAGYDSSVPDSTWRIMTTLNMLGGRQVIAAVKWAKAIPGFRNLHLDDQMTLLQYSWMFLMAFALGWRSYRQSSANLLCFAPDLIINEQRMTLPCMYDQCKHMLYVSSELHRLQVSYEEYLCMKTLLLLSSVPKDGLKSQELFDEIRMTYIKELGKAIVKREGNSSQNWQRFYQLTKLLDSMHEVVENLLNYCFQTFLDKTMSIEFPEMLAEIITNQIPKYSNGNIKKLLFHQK
Conditions: hela s3.

Sequence of Cytochrome P450 2C19 (P33261 whole entry): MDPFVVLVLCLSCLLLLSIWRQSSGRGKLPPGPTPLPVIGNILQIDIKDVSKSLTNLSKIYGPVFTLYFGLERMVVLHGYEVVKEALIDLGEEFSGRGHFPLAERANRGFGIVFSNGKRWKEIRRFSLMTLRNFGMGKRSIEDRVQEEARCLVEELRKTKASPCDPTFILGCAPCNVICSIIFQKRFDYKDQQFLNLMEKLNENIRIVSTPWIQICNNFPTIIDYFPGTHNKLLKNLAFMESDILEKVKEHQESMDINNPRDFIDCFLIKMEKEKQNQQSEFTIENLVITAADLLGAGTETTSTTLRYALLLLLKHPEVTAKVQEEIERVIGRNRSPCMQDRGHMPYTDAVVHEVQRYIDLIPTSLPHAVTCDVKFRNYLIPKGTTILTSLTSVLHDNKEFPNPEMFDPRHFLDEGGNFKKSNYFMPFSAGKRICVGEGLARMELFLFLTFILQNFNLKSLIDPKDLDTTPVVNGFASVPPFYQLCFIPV
Sequence of Nitric oxide synthase 1 (P29476 whole entry): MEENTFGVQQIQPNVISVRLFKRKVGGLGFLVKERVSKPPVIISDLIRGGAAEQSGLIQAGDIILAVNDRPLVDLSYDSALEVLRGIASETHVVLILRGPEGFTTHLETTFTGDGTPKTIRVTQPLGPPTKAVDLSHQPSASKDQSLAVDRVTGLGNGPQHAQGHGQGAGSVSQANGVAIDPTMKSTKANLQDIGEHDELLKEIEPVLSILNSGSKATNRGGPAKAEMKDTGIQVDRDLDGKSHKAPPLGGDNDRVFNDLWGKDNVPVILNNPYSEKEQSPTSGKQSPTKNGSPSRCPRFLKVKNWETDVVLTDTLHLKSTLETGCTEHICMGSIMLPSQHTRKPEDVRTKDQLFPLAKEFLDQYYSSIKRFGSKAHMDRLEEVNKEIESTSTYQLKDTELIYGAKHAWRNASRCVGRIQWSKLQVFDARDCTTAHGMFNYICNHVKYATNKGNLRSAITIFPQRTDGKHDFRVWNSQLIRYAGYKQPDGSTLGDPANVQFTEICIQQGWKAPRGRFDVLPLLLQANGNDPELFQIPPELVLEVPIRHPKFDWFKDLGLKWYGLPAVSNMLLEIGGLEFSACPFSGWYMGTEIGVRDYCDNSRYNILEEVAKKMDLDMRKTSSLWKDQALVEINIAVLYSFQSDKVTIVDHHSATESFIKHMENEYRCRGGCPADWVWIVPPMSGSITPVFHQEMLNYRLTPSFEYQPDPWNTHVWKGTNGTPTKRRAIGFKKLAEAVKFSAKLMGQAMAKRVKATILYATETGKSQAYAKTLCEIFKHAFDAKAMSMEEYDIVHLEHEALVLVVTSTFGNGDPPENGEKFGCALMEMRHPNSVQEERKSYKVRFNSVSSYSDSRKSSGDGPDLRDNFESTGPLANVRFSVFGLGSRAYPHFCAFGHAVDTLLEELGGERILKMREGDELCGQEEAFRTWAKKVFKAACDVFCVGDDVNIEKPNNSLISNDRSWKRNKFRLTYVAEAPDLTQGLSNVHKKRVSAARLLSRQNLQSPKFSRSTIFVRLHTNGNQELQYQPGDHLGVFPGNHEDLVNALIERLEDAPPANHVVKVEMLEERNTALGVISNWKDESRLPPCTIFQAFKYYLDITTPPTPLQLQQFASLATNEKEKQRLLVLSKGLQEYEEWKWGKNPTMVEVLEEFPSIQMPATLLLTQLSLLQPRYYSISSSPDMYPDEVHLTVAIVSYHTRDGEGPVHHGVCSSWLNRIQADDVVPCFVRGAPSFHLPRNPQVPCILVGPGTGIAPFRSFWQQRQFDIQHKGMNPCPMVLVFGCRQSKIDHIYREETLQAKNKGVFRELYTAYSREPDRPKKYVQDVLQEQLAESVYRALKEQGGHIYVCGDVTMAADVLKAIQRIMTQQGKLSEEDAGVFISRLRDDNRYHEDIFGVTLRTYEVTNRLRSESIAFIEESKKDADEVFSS

As to `O=C(CCCN1CC=C(n2c(=O)[nH]c3ccccc32)CC1)c1ccc(F)cc1` [DROPERIDOL], the IC50 in data set [1] (read-out: IC50) was 3.28 µM; at Nitric oxide synthase 1, “Not Active”; on Progesterone receptor it was “Not Active”; against Interstitial collagenase, “Not Active”; against Cytochrome P450 1A2 it was “Not Active”; at Cytochrome P450 2C19, “Not Active”. For the same compound, at Glucocorticoid receptor, the IC50 result is recorded as “Not Active”. The Ki is 2.02 µM in data set [1] (read-out: Ki), “Not Active” on Cytochrome P450 1A2 and “Not Active” at Cytochrome P450 2C19.

With `CCCCc1nc(Cl)c(CO)n1Cc1ccc(-c2ccccc2-c2nnn[nH]2)cc1` [LOSARTAN], the IC50 entry (in data set [1]; against Nitric oxide synthase 1; on Progesterone receptor; on Interstitial collagenase; on Cytochrome P450 1A2; on Cytochrome P450 2C19) was “Not Active” throughout. Moreover, at Glucocorticoid receptor, the IC50 result is listed as “Not Active”. Besides, the Ki entry (in data set [1]; on Cytochrome P450 1A2; at Cytochrome P450 2C19) was “Not Active” in each case.

In the case of `Cc1cc(C2CCCCC2)n(O)c(=O)c1` [CICLOPIROX], the IC50 entry (in data set [1]; on Nitric oxide synthase 1; on Progesterone receptor; against Interstitial collagenase; at Cytochrome P450 1A2; against Cytochrome P450 2C19) was “Not Active” throughout. Moreover, the IC50 entry against Glucocorticoid receptor was “Not Active”. Moreover, the Ki entry (in data set [1]; on Cytochrome P450 1A2; at Cytochrome P450 2C19) was “Not Active” in each case.

For `CC[C@@]1(O)C[C@H](O[C@H]2C[C@H](N(C)C)[C@H](O[C@H]3C[C@H](O)[C@H](O[C@H]4CCC(=O)[C@H](C)O4)[C@H](C)O3)[C@H](C)O2)c2c(cc3c(c2O)C(=O)c2c(O)cccc2C3=O)[C@H]1C(=O)OC` [ACLARUBICIN], the IC50 result (in data set [1]; against Nitric oxide synthase 1; at Progesterone receptor; against Interstitial collagenase; against Cytochrome P450 1A2; on Cytochrome P450 2C19) was “Not Active” throughout. Besides, at Glucocorticoid receptor, the IC50 result is listed as “Not Active”. For the same compound, the Ki entry (in data set [1]; on Cytochrome P450 1A2; at Cytochrome P450 2C19) was “Not Active” each time.

Regarding `CNCCc1ccccn1` [BETAHISTINE], the IC50 result (in data set [1]; against Nitric oxide synthase 1; on Progesterone receptor; against Interstitial collagenase; against Cytochrome P450 1A2; on Cytochrome P450 2C19) was “Not Active” throughout. For the same compound, on Glucocorticoid receptor, the IC50 result is given as “Not Active”. The Ki result (in data set [1]; at Cytochrome P450 1A2; at Cytochrome P450 2C19) was “Not Active” in each case.

As to `Clc1cccc(Cl)c1NC1=NCCN1` [CLONIDINE], the IC50 result (in data set [1]; at Nitric oxide synthase 1; at Progesterone receptor; against Interstitial collagenase; against Cytochrome P450 1A2; at Cytochrome P450 2C19) was “Not Active” each time. Further, on Glucocorticoid receptor, the IC50 result was “Not Active”. Besides, the Ki result (in data set [1]; on Cytochrome P450 1A2; at Cytochrome P450 2C19) was “Not Active” throughout.

For `C[C@H](CS)C(=O)N1CCC[C@H]1C(=O)O` [CAPTOPRIL], the IC50 entry (in data set [1]; against Nitric oxide synthase 1; at Progesterone receptor; at Interstitial collagenase; at Cytochrome P450 1A2; against Cytochrome P450 2C19) was “Not Active” each time. The half-inhibitory concentration (IC50) result on Glucocorticoid receptor is reported as “Not Active”. Moreover, the Ki entry (in data set [1]; on Cytochrome P450 1A2; at Cytochrome P450 2C19) was “Not Active” each time.

Consider `OC(Cn1cncn1)(Cn1cncn1)c1ccc(F)cc1F` [FLUCONAZOLE], for which the IC50 result (in data set [1]; at Nitric oxide synthase 1; at Progesterone receptor; against Interstitial collagenase; against Cytochrome P450 1A2; on Cytochrome P450 2C19) was “Not Active” each time. In addition, the half-maximal inhibitory concentration (IC50) result on Glucocorticoid receptor is on record as “Not Active”. In addition, the Ki entry (in data set [1]; on Cytochrome P450 1A2; on Cytochrome P450 2C19) was “Not Active” each time.

`O=C1CC[C@@H](N2C(=O)c3ccccc3C2=O)C(=O)N1`: the 50% inhibitory concentration (IC50) result (in data set [1]; against Nitric oxide synthase 1; on Progesterone receptor; against Interstitial collagenase; at Cytochrome P450 1A2; against Cytochrome P450 2C19) was “Not Active” throughout. In addition, the IC50 entry on Glucocorticoid receptor was “Not Active”. Also, the Ki entry (in data set [1]; on Cytochrome P450 1A2; on Cytochrome P450 2C19) was “Not Active” in each case.

Broadly, the IC50 is the concentration that gives 50% inhibition. As a reminder, the Ki is the dissociation constant of the complex between target and ligand, obtained from inhibition or displacement.
